PMC9468151, “Identification of a binding site on soluble RANKL that can be targeted to inhibit soluble RANK-RANKL interactions and treat osteoporosis” (Nature Communications, 2022)
Values joined by “and” are separate entries in the source; they are usually repeats but may differ in a detail not shown here. Equal entries are not always repeated.

Experiments:
[1] = tested on: sRANKL induced osteoclast differentiation; assay: In vitro anti-osteoclastogenesis activity determination (TRAP staining); assay type: cell-based, mouse; set-up: key to inhibition of osteoclastogenesis, dose-response (fig. S2a): % inhibition = 100 − (treated−unstimulated)/(untreated−unstimulated)×100; details: for IC50: read-out: OC IC50 (anti-osteoclastogenesis activity); for inhibition of osteoclastogenesis, dose-response (fig. S2a): three replicate columns
Procedure: Mouse osteoclasts were cultured according to the previously reported protocols. BMMs were plated in 96-well plates at a density of 6 × 10^3 cells/well with complete medium containing 10 ng/mL M-CSF. The following day, cells were then stimulated with 100 ng/mL sRANKL in the presence or absence of compounds with different concentrations every 2 days until osteoclasts formed. In order to calculate IC50, we set 9 concentrations for each compound and untreated and non-sRANKL unstimulating group as controls, each with triplicated repeated wells. After 5 days, cells were fixed with 4% paraformaldehyde and then applied TRAP-staining to identify osteoclasts by using the TRAP-staining kit. Osteoclasts number (OC No.) in each well was counted and the percentage of inhibition ratio was calculated as follows:1 OCinhibitoryratio%=100−OCNo.treated−OCNo.unstimulating/OCNo.untreated−OCNo.unstimulating×100%
The dosages and their correspondent osteoclastogenesis inhibitory activity curve and IC50 value were conducted by using Nonlinear regression (curve fit) analytic procedure in GraphPad Prism 8. Photographs of individual wells were taken using Leica microscope.

RAW264.7 cells = assay: In vitro cytotoxicity assay (MTT); assay type: cell-based, mouse; details: RAW264.7, MTT
Procedure: MTT assay was used to determine cell viability. RAW264.7 cells in the logarithmic growth phase were cultured in 96-well plates with 6 × 10^3 cells in each well and incubated for 24 h. The surviving cells were then determined by MTT method. […] Cell growth inhibition ratio was calculated as follows: Cellgrowthinhibitionratio%=ODvehicle−ODtreaed/ODvehicle×100%
Cell cytotoxicity CC50 value were conducted by using Nonlinear regression (curve fit) analytic procedure in GraphPad Prism 8.

[2] = BMMs, M-CSF + 100 ng/mL sRANKL, 5 days, TRAP staining

Compound	IC50 [1, 2]	inhibition of osteoclastogenesis, dose-response (fig. S2a) ([1]; conc. 0.0023464 μM)	inhibition of osteoclastogenesis, dose-response (fig. S2a) ([1]; conc. 0.00774313 μM)	inhibition of osteoclastogenesis, dose-response (fig. S2a) ([1]; conc. 0.0255523 μM)	inhibition of osteoclastogenesis, dose-response (fig. S2a) ([1]; conc. 0.0843226 μM)	inhibition of osteoclastogenesis, dose-response (fig. S2a) ([1]; conc. 0.278265 μM)	inhibition of osteoclastogenesis, dose-response (fig. S2a) ([1]; conc. 0.918274 μM)	inhibition of osteoclastogenesis, dose-response (fig. S2a) ([1]; conc. 3.0303 μM)	inhibition of osteoclastogenesis, dose-response (fig. S2a) ([1]; conc. 10 μM)	inhibition of osteoclastogenesis, dose-response (fig. S2a) ([1]; conc. 33 μM)	CC50 (RAW264.7 cells) [µM]	OC IC50 (anti-osteoclastogenesis activity) [1, 2]
CC(C)OC(=O)C(=NNc1ccccc1C(=O)O)C(=O)Nc1ccccn1 [S3-15-4]	0.62 µM	19.4737 and 18.6842 and 17.1053	16.7105 and 16.3158 and 13.9474	17.8947 and 11.579 and 18.2895	16.7105 and 20.2632 and 17.8947	34.8684 and 32.5 and 38.8158	53.8158 and 43.9474 and 58.5526	73.9474 and 71.9737 and 70.3947	88.5526 and 83.421 and 86.579	100	57.2	–
CC(=O)C(=NNc1ccccc1C(=O)O)C(=O)Nc1nc(C)cs1 [S3-08]	2.33 µM and 2.34 µM	1.304 and -3.21 and -2.307	3.711 and 2.508 and 1.304	3.109 and 3.41 and 5.517	6.118 and 6.419 and 8.225	18.7563 and 19.0572 and 20.2608	29.8897 and 31.0933 and 35.005	50.9529 and 40.7222 and 44.6339	83.7512 and 85.2558 and 78.6359	100	> 100	–
CCOC(=O)c1sc(NC(=O)C(=NNc2ccc(C)cc2C(=O)O)C(C)=O)nc1C [S3-13]	10.7 µM	1.735 and -0.7143 and 2.347	1.735 and -2.551 and 3.571	7.857 and -4.694 and -0.102	11.8367 and 3.878 and -9.592	11.2245 and 7.551 and -1.327	7.2449 and 6.633 and 3.571	7.2449 and 2.959 and -1.327	47.6531 and 40.3061 and 42.7551	100	> 100	–
CCOC(=O)c1sc(NC(=O)C(=NNc2ccccc2C(=O)OC)C(C)=O)nc1C [S3-00]	–	7.803 and 2.07 and 1.592	3.981 and 7.325 and 13.535	-1.274 and 4.936 and 3.025	10.6688 and 9.713 and 2.07	4.936 and 4.4586 and 8.758	21.1783 and 12.5796 and 14.9681	46.9745 and 43.6306 and 45.5414	57.4841 and 67.9936 and 66.5605	93.3121 and 95.2229 and 92.8344	57.2	–
CC(=O)C(=NNc1ccccc1C(=O)[O-])C(=O)Nc1nc(C)cs1.[Na+] [S3-12]	–	4.4898 and 6.02 and -2.2449	6.939 and -1.02 and -1.633	4.796 and 0.8163 and -3.469	37.8571 and 16.4286 and 7.857	39.3878 and 32.9592 and 21.3265	55.3061 and 47.3469 and 54.0816	74.2857 and 67.551 and 64.4898	94.7959 and 77.0408 and 85	100	65.8	–
CC(=O)C(=NNc1ccccc1C(=O)O)C(=O)Nc1nc(C)c(C(=O)N2CCOCC2)s1 [S3-20]	8.71 µM	-0.2448 and 3.06 and 1.591	8.935 and 4.896 and 2.326	5.263 and 4.529 and 0.8568	5.63 and 2.326 and 1.591	4.529 and 3.06 and 3.794	5.63 and 5.263 (2×)	5.263 and 7.466 and 5.998	58.8739 and 58.1395 and 58.5067	97.4296 and 97.0624 and 96.328	> 100	–
CCOC(=O)c1sc(NC(=O)C(=NNc2ccccc2C(=O)O)C(=O)OC(C)C)nc1C [S3-22]	0.4 µM	1.224 and 0.8568 and 0.4896	0.8568 and 1.958 and 3.427	4.896 and 10.0367 and 5.263	26.1934 and 25.0918 and 21.4198	44.1861 and 41.6157 and 42.7173	58.8739 and 65.1163 and 60.7099	88.2497 and 86.7809 and 89.3513	100	100	81.2	–
CC(=O)C(=NNc1ccccc1C(=O)O)C(=O)N1CCOCC1 [S3-18]	–	–	–	–	–	–	–	–	–	–	52.6	Inactive
CC(=O)C(=NNc1ccccc1C(=O)O)C(=O)Nc1ccc(C#N)cn1 [S3-15-1]	1.05 µM	2.8169 and -0.3521 and -2.465	2.113 and 9.859 and 10.5634	19.3662 and 16.1972 and 17.6056	28.169 and 26.7606 and 24.2958	28.169 (2×) and 24.2958	45.0704 and 44.7183 (2×)	59.8591 and 57.7465 and 60.9155	77.4648 and 79.5775 and 76.0563	100	81.2	–
CCOC(=O)c1sc(NC(=O)C(=NNc2ccc(F)cc2C(=O)O)C(C)=O)nc1C [S3-14]	0.27 µM	3.265 and -2.857 and -2.551	7.2449 and 0.2041 and -2.857	7.2449 and 2.041 and 14.2857	37.8571 and 28.9796 and 23.4694	54.3878 and 61.4286 and 45.8163	73.9796 and 67.2449 and 59.2857	88.9796 and 96.3265 and 87.7551	98.4694 and 95.7143 and 97.551	100	76.2	–
